{"source": "paper PMC11358443", "about": "“Polymodal K^+ channel modulation contributes to dual analgesic and anti-inflammatory actions of traditional botanical medicines” (Communications Biology, 2024)", "key": {"human CD4 T cells": {"system": "human CD4 T cells", "assay": "Human CD4 T cell proliferation assay (CFSE dilution, viability dye)", "assay_type": "cell-based", "conditions": "96 h", "description": "Whole blood from de-identified healthy donors, from whom informed consent was obtained, was obtained from the Institute for Clinical and Translational Science (ICTS) research Blood Donor Program at the University of California, Irvine approved and reviewed by the Institutional Review Boards of UCI (IRB protocol HS #2001-2058). All ethical regulations relevant to human research participants were followed. Peripheral blood mononuclear cells (PBMC) were isolated by density gradient separation using lymphocyte separation media (Corning, Cat# 25-072-CV) and SepMate tubes (STEMCELL Technologies, Cat# 85450). Blood was first diluted (1:3) in phosphate-buffered saline (PBS) containing 2% fetal bovine serum (FPS), then overlaid on top of lymphocyte separation media (2:1). CD4+ T cells were isolated from PBMCs using magnetic separation (EasySep Human CD4+ T cell isolation kit, STEMCELL Technologies, Cat# 17952), post isolation purity is typically >95% based on CD4 and CD3 staining. Purified CD4^+ T cells were labeled with 1.6 µM of CellTrace CFSE in AIM V Serum-Free Medium (Gibco Cat# 12055-083) for 8 min[84]. CFSE labeled CD4 T cells were stimulated with anti-CD3- and anti-CD28-coated Dynabeads (Thermo Fisher Scientific, Cat# 111310) at 1:1 ratio in a round-bottom 96-well plate at 37 °C and 5% CO2 in the dark for 96 h in T cell culture medium (RPMI with 10% FCS, L-glutamine, non-essential amino acids, sodium pyruvate, β-mercaptoethanol and penn–strep with amphotericin B). On day 4 cells were stained with Fixable Viability Dye eFluor 780 (FVD-780, Thermo Fisher Scientific, Cat# 65-0865-14) in PBS for 20 min at 4 °C to identify dead cells. Cells were then washed with 1× PBS + 1% FBS twice and transferred to a round-bottom 96-deep well plate (Greiner, Cat# 07-000-119) for flow cytometry. Fluorescence intensity data were acquired using NovoCyte Quanteon (Agilent Technologies) flow cytometer. FSC files were used for gating and analysis using FlowJo analysis software (FlowJo LLC, Ashland, OR). […]"}, "[1]": {"biological_target": "native Kv1.3 current in activated human T-cells (Homo sapiens, UniProt P22001)", "sequence (P22001 whole entry)": "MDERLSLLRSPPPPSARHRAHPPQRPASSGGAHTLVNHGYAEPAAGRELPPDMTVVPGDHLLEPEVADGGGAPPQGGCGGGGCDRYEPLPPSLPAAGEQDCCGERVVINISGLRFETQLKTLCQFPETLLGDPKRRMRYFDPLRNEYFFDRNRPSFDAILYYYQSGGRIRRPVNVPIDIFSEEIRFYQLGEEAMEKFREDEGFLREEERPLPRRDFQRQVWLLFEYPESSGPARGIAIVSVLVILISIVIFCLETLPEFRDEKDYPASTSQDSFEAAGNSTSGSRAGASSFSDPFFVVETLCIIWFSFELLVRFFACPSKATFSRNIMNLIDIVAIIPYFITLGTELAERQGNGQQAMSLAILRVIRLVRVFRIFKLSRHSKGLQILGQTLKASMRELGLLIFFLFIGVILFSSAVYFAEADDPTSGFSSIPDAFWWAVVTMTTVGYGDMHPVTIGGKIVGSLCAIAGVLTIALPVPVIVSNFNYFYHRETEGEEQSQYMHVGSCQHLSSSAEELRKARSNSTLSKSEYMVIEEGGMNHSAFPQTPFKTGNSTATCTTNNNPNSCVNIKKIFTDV", "assay": "Patch-clamp of native Kv1.3 current in activated human T-cells", "assay_type": "cell-based", "conditions": "approximation, underestimate of potency (saturation incomplete); read-out: IC50 for human T-cell Kv1.3 current", "protocol": "Human CD4+ T cells from frozen PBMCs ([sequence] Technologies) were isolated with EasySep negative isolation kit ([sequence] Technologies, cat. #17952) according to manufacturers’ protocols. After isolation cells were plated on anti-CD3 (BioLegend, clone OKT3, 2.5 μg/ml), anti-CD28 (BioLegend, clone CD28.2, 2.5 μg/ml)-coated 6-well plate dish at 1.5 × 10^6 cells/well in 3 ml RPMI medium (Gibco) supplemented with 10% FBS (Omega Scientific), 1% L-glutamine (Gibco), 1% non-essential amino acids (Gibco), 1% sodium pyruvate (Gibco), 1% penicillin–streptomycin–amphotericin B (Gibco) and 50 µM, β-mercaptoethanol (Sigma), 30 U/ml recombinant human IL-2 (BioLegend, cat. #589102). Cells were incubated during 48–144 h in 5% CO2 + 95% O2 atmosphere at 37 °C, harvested and plated on poly-lysine coated coverslips; 30–60 min later cells were used in the experiment.\nWe performed patch clamp experiments at 20–23 °C, acquiring data with an EPC9 patch clamp amplifier (HEKA), a 5 kHz sampling rate and digitally filtering at 1–2 kHz. […] The Kv1.3 currents were recorded in response to 600 ms step pulse from holding potential −80 mV to +40 mV acquired every 30 s. […] The recorded currents were analyzed with Patch Master (HEKA Electronics) and Origin Pro (Origin Lab)."}, "Kv1.1": {"biological_target": "Kv1.1 (Homo sapiens, UniProt Q09470)", "sequence (Q09470 whole entry)": "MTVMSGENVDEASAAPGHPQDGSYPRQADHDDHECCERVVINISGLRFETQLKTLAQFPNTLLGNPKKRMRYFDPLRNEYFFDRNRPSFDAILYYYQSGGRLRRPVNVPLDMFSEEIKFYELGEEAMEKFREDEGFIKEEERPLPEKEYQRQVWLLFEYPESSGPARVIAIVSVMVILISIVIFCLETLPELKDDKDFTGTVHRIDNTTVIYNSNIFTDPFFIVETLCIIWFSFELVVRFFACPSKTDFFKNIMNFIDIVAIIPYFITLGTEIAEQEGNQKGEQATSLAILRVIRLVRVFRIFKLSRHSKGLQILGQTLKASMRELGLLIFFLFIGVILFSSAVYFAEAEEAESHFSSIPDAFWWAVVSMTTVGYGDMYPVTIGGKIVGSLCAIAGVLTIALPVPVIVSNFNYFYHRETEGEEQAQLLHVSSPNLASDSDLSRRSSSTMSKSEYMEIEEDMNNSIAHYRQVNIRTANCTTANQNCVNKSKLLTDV", "design": "method as in PMID 33093824", "conditions": "cited from earlier work"}}, "note": "Several values for one entry are separate records, joined by “and”; a condition that tells them apart may be missing. Equal values may be shown once.", "data": [{"substance": "tannic acid", "values": [{"measurement": "LD50 (viability dose–response)", "setting": "human CD4 T cells; mean of 9 donors", "value": 87, "unit": "µM"}, {"measurement": "IC50 for limiting T cell proliferation (division index)", "setting": "human CD4 T cells; CD3/CD28 Dynabead stimulation, 10% FCS", "value": "35 µM and 35.03 µM"}, {"measurement": "cell viability", "setting": "human CD4 T cells; at 50 µM", "value": "76.96 ± 8.922", "unit": "%"}, {"measurement": "IC50", "setting": "[1]", "value": "3.3 ± 0.2", "unit": "µM"}, {"measurement": "effect on voltage dependence of Kv1.1", "setting": "Kv1.1", "value": "negative-shift"}]}]}
